Entries after “also recorded” stand apart in the source; their conditions may differ.

Data set [1] concerns cultured hippocampal neurons.
Data set [2] has as its system sEPSCNMDAR, synaptic NMDARs of cultured hippocampal neurons. Format: cell-based, rat.
The test system of data set [3] is cultured hippocampal neurons. Conditions: 48 h.

Regarding `CN[C@@H]1C[C@H]2O[C@@](C)([C@@H]1OC)n1c3ccccc3c3c4c(c5c6ccccc6n2c5c31)C(=O)NC4` [STRO, staurosporine], in data set [1], the Apoptotic neurons was 30.85% and the “Dead (apoptotic) neurons” value is 76.99%.

Regarding `N[C@H](CCCP(=O)(O)O)C(=O)O` [AP5, (2R)-amino-5-phosphonovaleric acid], the “Neuroprotection against STRO” value in data set [1] was “did not exert neuroprotection”. On to `CC(C(O)c1ccc(O)cc1)N1CCC(Cc2ccccc2)CC1` (centres unmarked) [ifenprodil], for which, in data set [2], the “sEPSCNMDAR amplitude” value was “strongly reduced amplitudes; also recorded: significantly less so in mature neurons”. `CN[C@H](CC(=O)O)C(=O)O` [NMDA, N-methyl-D-aspartate] had a Neurons killed in data set [3] of about 80%.

For the origin of these results see publication PMC11826341 (PNAS Nexus, 2025).
